Converted amounts (≈) assume the structure as drawn.
Tests used:
[1] = tested on: A4V cells (VSC 4.1, mutant human Cu/Zn SOD-1); assay: DAPI staining to evaluate apoptosis by GSNO; format: cell-based; conditions: 500 μM GSNO, 24 h
Protocol: (§1) DAPI staining to evaluate apoptosis by GSNO and its results; 4′,6-Diamidino-2-phenylindole dihydrochloride (DAPI) staining was performed to evaluate apoptosis as follows. After differentiation, the wildtype (control), G93A, and A4V cells were incubated with without 500 μM GSNO for 24 h; the cells were then centrifuged at 265 g for 2 min, and 4% neutral buffered formalin (100 μL) was added to the cell pellet. A 50 μL aliquot of the cell suspension was applied to a glass slide and dried at room temperature. The fixed cells were washed in PBS, air dried, and stained for 20 min with the DNA-specific fluorochrome, DAPI (Sigma, Saint Louis, Mo., USA). The adhered cells were rinsed with PBS, air dried, and mounted with 90% glycerol. The slides were observed under Olympus fluorescence microscopy(pictures).

[2] = tested on: G93A cells (VSC 4.1, mutant human Cu/Zn SOD-1); assay: DAPI staining to evaluate apoptosis by GSNO; format: cell-based; conditions: 500 μM GSNO, 24 h
Protocol: as §1

[3] = tested on: wild type cells (VSC 4.1, wild type human Cu/Zn SOD-1); assay: DAPI staining to evaluate apoptosis by GSNO; format: cell-based; conditions: 500 μM GSNO, 24 h
Protocol: as §1

in vitro = conditions: rat/mouse hybrid
Protocol: To evaluate the anti-apoptotic effect of solubilized UDCA against GSNO on wild type cells and cells containing G93A and A4V mutations in hSOD1, wildtype cells, G93A cells, and A4V cells were incubated with 500 μM GSNO for 24 h in order to induce apoptosis and then cell viability of was determined. These apoptosis-induced wildtype cells, G93A cells, and A4V cells were next incubated with 20 μM of solubilized UDCA for 24 h and cell viability was determined again using both the MTT assay and Trypan blue staining.
Cell culture: VSC 4.1. […]
MTT assay and trypan blue staining to evaluate the anti-apoptotic effects of solubilized UDCA and its results; 3-(4,5-dimethylthiazol-2-yl)-2,5-diphenyltetrazolium bromide (MTT) is absorbed into cells and converted to formazan by the action of mitochondrial succinate dehydrogenase. […] Finally, optical density (OD) was read at 540 nm on the ELISA plate reader after particles in the well were dissolved by a microplate mixer for 10 min. Results were calibrated using OD measured without cell culture. […] Unstained live cells were counted on a haemocytometer. Cell viability was expressed as percentages of the cell survival.

[4] = protonated form; cited from earlier work
[5] = oral administration; cited from earlier work

Q: With N[C@@H](CCC(=O)N[C@@H](CSN=O)C(=O)NCC(=O)O)C(=O)O [GSNO, S-nitrosoglutathione] as the compound, how does the “percent of apoptotic cells” value [1] read?
A: 25%

Q: And the “percent of apoptotic cells” value [2]?
A: 19%

Q: And the “percent of apoptotic cells” value [3]?
A: 8%

Q: And the viability at 24 h, 500 μM (in vitro)?
A: 81%

Q: For C[C@H](CCC(=O)NCCS(=O)(=O)O)[C@H]1CC[C@H]2[C@@H]3[C@@H](O)C[C@@H]4C[C@H](O)CC[C@]4(C)[C@H]3CC[C@]12C [TUDCA, tauroursodeoxycholic acid], which solubility [4] is on record?
A: 450 µM (≈ 225 µg/mL)

Q: What does the source list for C[C@H](CCC(=O)O)[C@H]1CC[C@H]2[C@@H]3[C@@H](O)C[C@@H]4C[C@H](O)CC[C@]4(C)[C@H]3CC[C@]12C [UDCA, Ursodeoxycholic acid]?
A: solubility [4]: about 0.05 mM; fraction of an ingested dose absorbed in the colon [5]: 20%
